Experimental data published in patent US7960614B2, “Plant transformation and selection” (Arborgen, LLC, priority 2003, dated 2011).

What was measured:
loblolly cell lines = test: asa2 (pWVC33) selection on Geneticin, 5MT or AMT, PCR check (Example 32); type: cell-based, Pinus taeda; conditions: Geneticin 15 mg/L with casein hydrolysate, 5MT or AMT 30 mg/L with AA4; for PCR confirmed positive (number of lines): of 12, 8, 22 lines PCR tested
Description: Two loblolly cell lines were prepared for transformation using the method of Example 28, and co-cultivated with Agrobacterium tumefaciens transformed with pWVC33 (FIG. 7) as described in Example 28. Following eradication of Agrobacterium, each cell line was equally divided onto 6 plates each of 5 different selection media containing either casein hydrolysate and Geneticin at 15 mg/L, or amino acid mixture AA4 and either 5-methyltryptophan (5MT) at 30 or 50 mg/L or […] (AMT) at 30 or 50 mg/L. The results are show in FIG. 12. Putatively transformed sublines grow on Geneticin-containing plates and on both selection treatments where 30 mg/L of the methylated tryptophan selective analog was incorporated.

[1] = test system: Loblolly pine (Pinus taeda) and hybrid pine (P. taeda×P. rigida) embryogenic cell lines; test: Selection of co-bombarded (als + nptII) pine embryogenic cells on Geneticin or Oust; type: cell-based
Excerpt: This example describes the selection of genetically transformed pine, using a selectable marker encoding ALS on selection media containing a sulfonylurea herbicide, at a level sufficient for selection in model plants. In some experiments, including the one described in the following example, a vector that would express the als gene in the plant tissue was co-bombarded into the cells with a vector that would express the nptII gene in the plant tissue, and the co-bombarded cells were then divided into two groups and placed onto selection medium containing either a sulfonylurea herbicide or Geneticin, so that the frequency with which transformants are selected on Geneticin could be compared with the frequency of selection on herbicide.
Twenty identical replicates from the suspension cells of each of these three pine lines were prepared for gene transfer according to the method described in U.S. Pat. No. 6,518,485. Polyester membrane supports of a defined weight were sterilized by autoclaving and placing in separate sterile Buchner funnels, and approximately 1.5 ml of uniform pine embryogenic suspension at SCV 30 was pipetted onto each support such that the embryogenic tissue was evenly distributed over its surface. […]

[2] = test system: Eucalyptus grandis x urophylla Clone IPB1; test: Geneticin selection of NPTII transformants, GUS staining of resistant calli; type: cell-based; conditions: about 10 weeks
Description: Before transforming, the explants were pre-cultured for 4 days on a medium having auxin enrichment (IAA at 2 mg/l instead of 0.1 mg/l NAA in standard regeneration medium) and acetosyringone (250 μM). As described in Example 6, the explants were infected with Agrobacterium, co-cultivated on the same medium for 3 days, and then transferred to a regeneration medium supplemented with 400 mg/l timentin for 4 days. Then, the explants were transferred to a selection medium containing geneticin instead of an herbicide selection agent.
The transformants were placed on geneticin selection medium containing geneticin (either 20 or 30 mg/l). Instead of the 3- or 4-week transfer cycles used with an herbicide selection medium, the explants were transferred bi-weekly to fresh geneticin medium. After about 10 weeks of growth on geneticin selection medium, samples of geneticin-resistant calli were collected and stained with x-gluc for GUS expression, as described in Example 7. The following data summarizes GUS expression in geneticin-selected transformants.

[3] = test system: E. camaldulensis clone C9; test: Geneticin selection of NPTII transformants, GUS staining of resistant shoot lines; type: cell-based, Eucalyptus camaldulensis; conditions: 8 weeks selection
Description: Similar to the methods disclosed in Example 16, E. camaldulensis clone C9 was transformed with GV2260 harboring p35SGUSINT. Following regeneration, the explants were transferred to a selection medium containing geneticin (30, 40, 50, or 60 mg/l geneticin). For geneticin at levels of 30 and 50 mg/l, additional sets of explants were pre-cultured for 1 day. After 8 weeks on selection medium, samples of geneticin-resistant shoot cultures in the early developmental stage were collected and stained with x-gluc for GUS expression.

E. grandis clone IP1 = test: as above; type: cell-based, Eucalyptus grandis; conditions: 8 weeks
Description: (Arabidopsis ActinII.:GUSINT, constitutive::NPTII). As described in Example 4, leaf explants from E. grandis clone IP1 were pre-cultured on a pre-culture medium comprising auxin and an Agrobacterium inducer. The explants were transformed with Agrobacterium and co-cultivated for 3 days on a pre-culture medium with auxin enrichment (IAA at 2 mg/l, instead of 0.1 mg/l NAA in standard regeneration medium) and acetosyringone (250 μM). Then the explants were transferred to Euc Regeneration medium supplemented with 400 mg/l timentin for 4 days. The explants were then transferred to selection medium containing geneticin (30 or 40 mg/l geneticin). After 8 weeks on selection medium, samples of geneticin-resistant shoot cultures in the early developmental stage were collected and stained with x-gluc for GUS expression.

[4] = test system: loblolly pine and loblolly x pitch pine hybrid embryogenic lines; test: Growth of pine embryogenic lines on Oust with and without casein hydrolysate (FIG. 9); type: cell-based, Pinus taeda; loblolly x pitch pine hybrid; conditions: Oust at 0, 10, 20, 40, and 80 nM, DCR2 with and without casein hydrolysate, twelve weeks
Description: Six embryogenic lines, two each from three different families (two genetically diverse loblolly pine families and a family of a loblolly x pitch pine hybrid), were evaluated. Uniform suspension cultures from each of the genetically different tissue culture lines were established as described in Example 26. Three identical replicates from the suspension cells of each of these six lines were plated as described in Example 26 on each of ten formulations of DCR2 medium, namely with and without casein hydrolysate, and containing the herbicide Oust at 0, 10, 20, 40, and 80 nM. The plates were sealed and incubated under the same conditions used for pre-experimental initiation, maintenance and selection steps in Example 26. Every three weeks the culture was transferred to fresh medium of the same formulation as previously provided, following weighing under sterile conditions of the tissue on the polyester support.

E. dunnii clone DUN00001 = test: Shoot regeneration from Agrobacterium-inoculated internodal explants, zeatin/NAA optimisation; type: cell-based, Eucalyptus dunnii
Description: This example teaches a method to optimize the levels of growth regulators for shoot regeneration from the recalcitrant commercial E. dunnii clone DUN00001 or other recalcitrant clones. Internodal explants are prepared as described in Example 1 and are inocultated with Agrobacterium as described in Example 5. Following co-cultivation, transformed shoot clumps are transferred to a shoot regeneration medium. […] To optimize the auxin and cytokinin concentrations in the shoot regeneration media, several combinations of hormones were evaluated as a function of the production of elongated shoots. […] During the initial screening, the zeatin levels were 10, 1, and 0.1 mg/l and the NAA levels were 0.01, 0.1 and 1 mg/l. […] The following data summarize the attempt to optimize the level of zeatin and NAA.

`CC(c1c[nH]c2ccccc12)[C@H](N)C(=O)O` (stereo partly drawn) [AMT30, β-methyltryptophan] was tested. Which “False positive Frequency” value (loblolly cell lines) did it give?
The value was 0.09.

And the “PCR confirmed positive (number of lines)” value (loblolly cell lines)?
The value was 20.

How did the “putative transgenic sublines in which stable transformation is verified” value ([1]; selection on Geneticin 15 mg/L, 12 sublines tested) turn out when `CN[C@@H]1[C@@H](O)[C@@H](O[C@@H]2[C@@H](O)[C@H](O[C@H]3O[C@H]([C@@H](C)O)[C@@H](O)[C@H](O)[C@H]3N)[C@@H](N)C[C@H]2N)OC[C@]1(C)O` [Geneticin] was run?
Its value is 100%.

What about the “No. GUS^+ Calli” value ([2]; Geneticin 20 mg/l, regular shaded light, 5 calli stained) of the same compound?
Its value is 0.

And the “No. GUS^+ Calli” value ([2]; Geneticin 30 mg/l, dark, 6 calli stained)?
The value was 4.

And the “No. GUS^+ Calli” value ([2]; Geneticin 30 mg/l, regular shaded light, 17 calli stained)?
The value was 13.

What about the “False positive Frequency” value (loblolly cell lines) of the same compound?
The value was 0.08.

And the “PCR confirmed positive (number of lines)” value (loblolly cell lines)?
The value was 11.

What about the “% GUS^+ Shoots” value ([3]; Geneticin 30 mg/l, pre-culture 1 day) of the same compound?
The value was 37.9%.

What about the “No. GUS^+ Shoot Lines” value ([3]; Geneticin 30 mg/l, pre-culture 1 day, 29 lines stained) of the same compound?
Its value is 11.

And the “% GUS^+ Shoots” value ([3]; Geneticin 30 mg/l, pre-culture 4 days)?
The value was 12.8%.

And the “No. GUS^+ Shoot Lines” value ([3]; Geneticin 30 mg/l, pre-culture 4 days, 39 lines stained)?
The value was 5.

And the “% GUS^+ Shoots” value ([3]; Geneticin 40 mg/l, pre-culture 4 days)?
The value was 11.8%.

And the “No. GUS^+ Shoot Lines” value ([3]; Geneticin 40 mg/l, pre-culture 4 days, 68 lines stained)?
The value was 8.

And the “% GUS^+ Shoots” value ([3]; Geneticin 50 mg/l, pre-culture 1 day)?
The value was 50%.

And the “No. GUS^+ Shoot Lines” value ([3]; Geneticin 50 mg/l, pre-culture 1 day, 12 lines stained)?
The value was 6.

And the “% GUS^+ Shoots” value ([3]; Geneticin 50 mg/l, pre-culture 4 days)?
Its value is 19.4%.

And the “No. GUS^+ Shoot Lines” value ([3]; Geneticin 50 mg/l, pre-culture 4 days, 31 lines stained)?
The value was 7.

And the “% GUS^+ Shoots” value ([3]; Geneticin 60 mg/l, pre-culture 4 days)?
Its value is 50%.

What about the “No. GUS^+ Shoot Lines” value ([3]; Geneticin 60 mg/l, pre-culture 4 days, 8 lines stained) of the same compound?
Its value is 4.

What about the “% GUS^+ Shoots” value (E. grandis clone IP1; explant source rooted plants, Geneticin 30 mg/l) of the same compound?
Its value is 0%.

And the “No. GUS^+ Shoot Lines” value (E. grandis clone IP1; explant source rooted plants, Geneticin 30 mg/l, 1 line stained)?
The value was 0.

And the “% GUS^+ Shoots” value (E. grandis clone IP1; explant source shoot cluster, Geneticin 30 mg/l)?
The value was 50%.

What about the “No. GUS^+ Shoot Lines” value (E. grandis clone IP1; explant source shoot cluster, Geneticin 30 mg/l, 16 lines stained) of the same compound?
The value was 8.

What about the “% GUS^+ Shoots” value (E. grandis clone IP1; explant source shoot cluster, Geneticin 40 mg/l) of the same compound?
The value was 57%.

What about the “No. GUS^+ Shoot Lines” value (E. grandis clone IP1; explant source shoot cluster, Geneticin 40 mg/l, 7 lines stained) of the same compound?
Its value is 4.

Which “putative transgenic sublines that were false positives” value ([1]; selection on 50 nM Oust, medium with casein hydrolysate) does the source give for `COC(=O)c1ccccc1S(=O)(=O)NC(=O)Nc1nc(C)cc(C)n1` [Oust] here?
The value was “Eighty”.

What about the “success as selective agent (stopping cell growth), FIG. 9” value [4] of the same compound?
Its value is “successful as a selective agent at multiple concentrations only in the absence of casein hydrolysate”.

What does the source list for `C/C(=C\CNc1ncnc2[nH]cnc12)CO` [Zeatin, zeatin]?
shoot induction, comparison of levels in two experiments (E. dunnii clone DUN00001; Table 5 experiments): zeatin at 5 mg/l is better than 10 mg/l; shoot regeneration, initial screening of levels (E. dunnii clone DUN00001; zeatin 10, 1, and 0.1 mg/l with NAA 0.01, 0.1 and 1 mg/l): better results at 10 mg/l than at 1 mg/l or 0.1 mg/l
